Laboratory results published in PubChem BioAssay AID248 (DTP/NCI, 2004).
Toxic doses and inconclusive results are not listed.

Tested on: L1210 leukemia ip in BDF1 mice, survival T/C
Test: NCI In Vivo Anticancer Drug Screen. Data for tumor model L1210 Leukemia (intraperitoneal) in B6D2F1 (BDF1) mice
Settings: endpoint: mean survival time, higher = longer survival
Summary of the method: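 Value reflects the ratio of survival in compound-treated mice to survival in vehicle-treated controls, with both groups carrying the same transplanted tumor.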

[1] = dose: 100.0 mg/kg/injection, schedule: Q04DX003 (ip), vehicle: saline with Tween-80
[2] = dose: 200.0 mg/kg/injection, schedule: Q04DX003 (ip), vehicle: saline with Tween-80
[3] = dose: 400.0 mg/kg/injection, schedule: Q04DX003 (ip), vehicle: saline with Tween-80
[4] = dose: 100.0 mg/kg/injection, schedule: Q04DX003 (ip), vehicle: Klucel (hydroxypropylcellulose) (HPC)
[5] = dose: 200.0 mg/kg/injection, schedule: Q04DX003 (ip), vehicle: Klucel (hydroxypropylcellulose) (HPC)
[6] = dose: 100.0 mg/kg/injection, schedule: Q01DX009 (ip), vehicle: saline with Tween-80
[7] = dose: 200.0 mg/kg/injection, schedule: Q01DX009 (ip), vehicle: saline with Tween-80

`O=C(Nc1ccc(CCNC2=NCCN2)cc1)c1ccc(C(=O)Nc2ccc(CCNC3=NCCN3)cc2)cc1` was tested, and the T/C (dose: 1.0 mg/kg/injection, schedule: Q01DX Z (ip), vehicle: water) was 107 % of control, the T/C (dose: 1.5 mg/kg/injection, schedule: Q01DX Z (ip), vehicle: water) was 109 % of control and the T/C (dose: 3.0 mg/kg/injection, schedule: Q01DX Z (ip), vehicle: water) was 158 % of control. The T/C (dose: 3.75 mg/kg/injection, schedule: Q01DX Z (ip), vehicle: water) was 167 % of control, the T/C (dose: 7.5 mg/kg/injection, schedule: Q01DX Z (ip), vehicle: water) was 151 % of control and the T/C (dose: 10.0 mg/kg/injection, schedule: Q01DX Z (ip), vehicle: carboxymethylcellulose (CMC)) was 216 % of control. For the same compound, the T/C (dose: 15.0 mg/kg/injection, schedule: Q01DX Z (ip), vehicle: water) was 92 % of control, the T/C (dose: 20.0 mg/kg/injection, schedule: Q01DX Z (ip), vehicle: carboxymethylcellulose (CMC)) was 180 % of control and the T/C (dose: 40.0 mg/kg/injection, schedule: Q01DX Z (ip), vehicle: carboxymethylcellulose (CMC)) was 118 % of control. For the same compound, the T/C (dose: 62.0 mg/kg/injection, schedule: Q01DX Z (oral), vehicle: water) was 101 % of control, the T/C (dose: 80.0 mg/kg/injection, schedule: Q01DX Z (ip), vehicle: carboxymethylcellulose (CMC)) was 108 % of control and the T/C (dose: 125.0 mg/kg/injection, schedule: Q01DX Z (oral), vehicle: water) was 100 % of control. For the same compound, the T/C (dose: 250.0 mg/kg/injection, schedule: Q01DX Z (oral), vehicle: water) was 109 % of control and the T/C (dose: 500.0 mg/kg/injection, schedule: Q01DX Z (oral), vehicle: water) was 101 % of control.

`CN=C(NC(C=O)C(O)C(O)C(O)CO)c1ccc(NC(=O)c2ccc(C(=O)Nc3ccc(C(=NC)NC(C=O)C(O)C(O)C(O)CO)cc3)cc2)cc1` (configuration not stated) was tested, and the T/C (dose: 62.0 mg/kg/injection, schedule: Q01DX Z (ip), vehicle: water) was 111 % of control and the T/C (dose: 125.0 mg/kg/injection, schedule: Q01DX Z (ip), vehicle: water) was 115 % of control.

With `CCSC1C(O)C(C(O)CO)OC1n1cc(C)c(=O)[nH]c1=O` (configuration not stated) the T/C (dose: 100.0 mg/kg/injection, schedule: Q01DX005 (ip), vehicle: saline) was 102 % of control and the T/C (dose: 200.0 mg/kg/injection, schedule: Q01DX005 (ip), vehicle: saline) was 107 % of control.

`N=C(N)SCc1ccc(Cl)cc1` was tested, and the T/C (dose: 25.0 mg/kg/injection, schedule: Q04DX002 (ip), vehicle: saline) was 98 % of control, the T/C (dose: 50.0 mg/kg/injection, schedule: Q04DX002 (ip), vehicle: saline) was 94 % of control and the T/C (dose: 100.0 mg/kg/injection, schedule: Q04DX002 (ip), vehicle: saline) was 101 % of control.

`O=CC1CO1` (configuration not stated) was tested, and the T/C (dose: 29.0 mg/kg/injection, schedule: Q01DX Z (ip), vehicle: steriod suspending solution) was 97 % of control, the T/C (dose: 44.0 mg/kg/injection, schedule: Q01DX Z (ip), vehicle: steriod suspending solution) was 99 % of control and the T/C (dose: 66.0 mg/kg/injection, schedule: Q01DX Z (ip), vehicle: steriod suspending solution) was 106 % of control.

For `COC(=O)c1cc(Cl)cc(C(=O)OC)c1`, the T/C [1] was 96 % of control, the T/C [2] was 93 % of control and the T/C [3] was 93 % of control.

In the case of `CCCCCCCCCCCC(=O)NC(=S)Nc1cccc(F)c1`, the T/C [4] is reported as 95 % of control and the T/C [5] is reported as 90 % of control.

With `CC(C)(C)Sc1cccnc1` the T/C [6] was 94 % of control and the T/C [7] was 98 % of control.

In the case of `CSc1nc(N)c(C(N)=O)cc1C#N`, the T/C [1] is reported as 89 % of control, the T/C [2] is reported as 89 % of control and the T/C [3] is reported as 87 % of control.

In the case of `COC(OC)c1nc(N)[nH]c(=O)c1Cc1ccc(C)c2ccccc12`, the T/C [6] is reported as 96 % of control, the T/C [1] is reported as 103 % of control and the T/C [7] is reported as 90 % of control. The T/C [2] was 97 % of control, the T/C (dose: 400.0 mg/kg/injection, schedule: Q01DX009 (ip), vehicle: saline with Tween-80) was 90 % of control and the T/C [3] was 92 % of control.

For `CCCCCCCC(O)CCCC` (configuration not stated), the T/C (dose: 100.0 mg/kg/injection, schedule: Q01DX009 (ip), vehicle: Klucel (hydroxypropylcellulose) (HPC)) was 100 % of control, the T/C [4] was 95 % of control and the T/C (dose: 200.0 mg/kg/injection, schedule: Q01DX009 (ip), vehicle: Klucel (hydroxypropylcellulose) (HPC)) was 104 % of control. The T/C [5] was 103 % of control, the T/C (dose: 400.0 mg/kg/injection, schedule: Q01DX009 (ip), vehicle: Klucel (hydroxypropylcellulose) (HPC)) was 104 % of control and the T/C (dose: 400.0 mg/kg/injection, schedule: Q04DX003 (ip), vehicle: Klucel (hydroxypropylcellulose) (HPC)) was 98 % of control.

For `Cn1c(NCC[N+](C)(C)C)nc2ncncc21`, the T/C (dose: 15.0 mg/kg/injection, schedule: Q01DX001 (ip), vehicle: saline) was 90 % of control, the T/C (dose: 30.0 mg/kg/injection, schedule: Q01DX001 (ip), vehicle: saline) was 93 % of control and the T/C (dose: 60.0 mg/kg/injection, schedule: Q01DX001 (ip), vehicle: saline) was 95 % of control.

In the case of `[O-]c1c[n+](-c2ccc3ccccc3c2)no1`, the T/C (dose: 100.0 mg/kg/injection, schedule: Q04DX003 (ip), vehicle: carboxymethylcellulose (CMC)) is reported as 114 % of control, the T/C (dose: 200.0 mg/kg/injection, schedule: Q04DX003 (ip), vehicle: carboxymethylcellulose (CMC)) is reported as 110 % of control and the T/C (dose: 400.0 mg/kg/injection, schedule: Q04DX003 (ip), vehicle: carboxymethylcellulose (CMC)) is reported as 104 % of control.
